Assay results taken from article PMC5773580, “A synthetic combinatorial approach to disabling deviant Hedgehog signaling” (Scientific Reports, 2018).
One block for each compound: values may come before it.

Key:
[1] = system: SMO-M2 in NIH3T3 (GLI-BS reporter); experiment: GLI-BS reporter assay, NIH3T3 cells with SMO-M2 DNA; format: cell-based; conditions: Mus musculus
Method: (§1) The HH-responsive firefly luciferase reporter (GLI-BS) and a control Renilla luciferase reporter (SV40-RL) were transfected into indicated cell lines using Effectene (Qiagen) either alone or with indicated DNAs. 24 hrs after transfection, cells were switched to low serum media (3% calf serum), and grown for another 48 hrs. in 5% CO2 in the presence/absence of compounds. 3T3-ShhFL cell line that stably expressing SHH and the two reporters were cultured in a similar fashion. FL and RL activities in lysate generated using Passive Lysis Buffer (Promega) were then assessed using the Dual-Luciferase kit (Promega) and a 96-well plate reading luminometer (BMG). The ratio of FL/RL was calculated and the averaged ratios from three replicates were reported.

[2] = system: RMS13 cells (GLI1 amp), GLI-BS reporter; experiment: GLI-BS reporter assay in RMS13 cells (GLI1 amplification); format: cell-based
Method: as §1

[3] = system: SHH-induced GLI activity (GLI-BS reporter) in NIH3T3; experiment: HH pathway reporter (GLI-BS reporter) assay, +Shh in NIH3T3; format: cell-based; conditions: Mus musculus; +Shh in NIH3T3, 48 hrs with compound
Method: as §1

[4] = system: HDAC activity (acetylated tubulin) in NIH-3T3 cells; experiment: Acetylation assay, Western blot of acetylated tubulin; format: cell-based; conditions: 48hrs
Method: (§2) For analyzing acetylation status of histone 3 and tubulin, NIH3T3 cells were grown to confluence in 6-well plates. After 48hrs of treatment with indicated chemicals, cells were lysed in RIPA buffer or 1% NP40/phosphate buffered saline/protease inhibitors (SIGMA, #S8820), the lysate cleared using a microcentrifuge, then 6 × sample loading buffer (Bioland Scientific) added to the supernatant. Proteins were separated on SDS-PAGE (BioRad Criterion TGX Precast Gels). Antibodies used for analyzing the blots were: acetylated tubulin (SIGMA, #T6793), tubulin, acetyl-histone H3 (Lys23), and histone H3 (Cell Signaling Technology, #2125 S, #8848 and #9717, respectively). Chemiluminescence was detected using a Li-COR Odyssey Imaging System.

[5] = system: GLI-BS reporter in Ptch1-/- MEFs; experiment: GLI-BS reporter assay in Ptch1-/- MEFs; format: cell-based
Method: as §1

[6] = system: nuclear HDAC activity (Ac-H3) in NIH-3T3 cells; experiment: Acetylation assay, Western blotting for acetylated histone 3 (Ac-H3); format: cell-based; conditions: 48hrs, Western blot
Method: as §2

[7] = system: SMO-L412F in NIH3T3 (GLI-BS reporter); experiment: GLI-BS reporter assay, NIH3T3 cells with SMO-L412F DNA; format: cell-based; conditions: Mus musculus
Method: as §1

Caco-2 cells = experiment: Caco-2 transwell cell permeability assay read out with 3T3-ShhFL reporter cells; format: in vitro ADME; conditions: 10μM, 6hrs, "B" CM tested on 3T3-ShhFL cells
Method: Caco-2 cell permeability assay was previously described. Briefly, Caco-2 cells were grown to confluence in 12-well transwell plates. Culture medium was replaced with 10μM of compounds in DMEM/ 3% calf serum and incubated for 6hrs. Diluted media were added to confluent 3T3-ShhFL cells for 48hrs and measure the Hh pathway activity by reporter assay.

[8] = system: GLI1 binding to DNA in RMS13 cells; experiment: GLI DNA binding assay (biotinylated oligo pulldown); format: cell-based; conditions: lysate of RMS13 cells treated 48 hrs
Method: A detailed protocol for DNA binding assay was previously described. Briefly, cells treated for 48 hrs with compounds were lysed in 1% NP40/phosphate buffered saline/protease inhibitors and cleared using a microcentrifuge. The lysate was then incubated with 0.5 µM of double-strand biotinylated oligonucleotides and 40 µl streptavidin-agarose bead suspension (Thermo Scientific, 20349) for 2 hrs. The streptavidin agarose beads are washed (3X) with 1% NP40/phosphate buffered saline/protease inhibitors and eluted with 2X Laemmli sample buffer. The supernatants are separated on SDS-PAGE and analyzed using western blotting. Antibodies were purchased from the following vendors: GLI1 (Cell Signaling Technology, #2534) and actin (SIGMA, #A5441).

IC50 [5]: 25 nM
SMILES: O=C(Nc1ccc(NC(=O)c2cc(Cl)ccc2Cl)cc1)c1cc(Cl)ccc1Cl [IHR-1, reference compound]
IC50 [3]: 7 nM

ability to transverse a cell monolayer (cell permeability) (Caco-2 cells): improved
SMILES: CC(C)(C)OC(=O)NCCCCCCC(=O)Nc1ccc(Cl)c(C(=O)Nc2ccc(NC(=O)c3cc(Cl)ccc3Cl)cc2)c1 [IHR-C7]
IC50 [3]: 4 nM

Continued, compound first:

SMILES: O=C(CCCCCCC(=O)Nc1ccc(Cl)c(C(=O)Nc2cccc(NC(=O)c3cc(Cl)ccc3Cl)c2)c1)NO [IHR (meta)-SAHA]
IC50 [1]: 850 nM
IC50 [2]: 1200 nM
IC50 [3]: 2300 nM
HDAC inhibitory activity, acetylated tubulin accumulation (ratio to total tubulin), compared with SAHA [4]: increase in anti-HDAC activity
IC50 [5]: 2500 nM
HDAC inhibitory activity, accumulation of acetylated histone 3 (ratio Ac-H3 to total H3) [6]: retain HDAC inhibitory activity
IC50 [7]: 920 nM

SMILES: CC(C)(C)OC(=O)Nc1ccc(Cl)c(C(=O)Nc2ccc(NC(=O)c3cc(Cl)ccc3Cl)cc2)c1 [IHR-NBoc, tert-butyl (4-chloro-3-((4-(2,5-dichlorobenzamido)phenyl)carbamoyl)phenyl)carbamate]
IC50 [3]: 1.9 nM

SMILES: O=C(CCCCCCC(=O)Nc1ccccc1)NO [SAHA, suberanilohydroxamic acid]
GLI1 binding to immobilized oligos with consensus GLI binding sequence [8]: loss of GLI1 binding
